Results reported in patent US9617276B2, “Compounds and methods for treating AIDS and HIV infections” (priority 2009, dated 2017).
Where two headings read alike, the source gives them in different places.

Legend:
[1] = tested on: HIV-1; conditions: prior inhibitors; read-out: ID50 (the source's name); cited from earlier work
[2] = tested on: HIV-1NL4-3; test: p24 Gag inhibition in MT-4 cells, HIV-1NL4-3; type: cell-based; conditions: Human immunodeficiency virus 1, MT4, read-out: EC50 (μM), HIV-1NL4-3, Table 9, mean ± 1 SD
Protocol: (§1) All assays were performed in duplicate or triplicate. […] All assays were performed in duplicate or triplicate.

[3] = cytotoxicity CC50; type: cell-based, Human; conditions: human
[4] = biological target: T1, HIV-1 protease (Human immunodeficiency virus type 1 group M subtype B, UniProt P04585); test: HIV protease enzyme inhibition, fluorometric assay of Toth and Marshall; type: biochemical; conditions: Ki, Table 2
T1 construct: A simple, continuous fluorometric assay for HIV protease
Protocol: (§2) The inhibitory potencies of acyclic and cyclic inhibitors were measured by the assay protocol of Toth and Marshall (Toth, M. V.; Marshall, G. R. A simple, continuous fluorometric assay for HIV protease. Int. J. Pep. Protien Res. 1990, 36, 544-55).

[5] = tested on: HIV-1LAI; test: drug susceptibility, MT-2 cells, MTT assay, HIV-1LAI; type: cell-based
Protocol: as §1
(§3) Each selectivity index denotes a ratio of CC50 to EC50 against HIV-1LAI N.D., not done.

[6] = tested on: HIV-1286-1μM; test: microbe, parasite or virus in culture; type: cell-based, HIV-1
Protocol: (§4) Briefly, MT-2 cells (2×10^4/ml) were exposed to 100 50% tissue culture infectious doses (TCID50S) of HIV-1LAI, in the presence or absence of various concentrations of drugs in 96-well microculture plates and were incubated at 37° C. for 7 days. After 100 μl of the medium was removed from each well, 3-(4,5-dimetylthiazol-2-yl)-2,5-diphenyltetrazolium bromide (MTT) solution (10 μl, 7.5 mg/ml in phosphate-buffered saline) was added to each well in the plate, followed by incubation at 37° C. for 3 h. […] All assays were performed in duplicate or triplicate. […] To determine the drug susceptibility of certain laboratory HIV-1 strains, MT-4 cells were used as target cells. In brief, MT-4 cells (10^5/ml) were exposed to 100 TCID50S of drug-resistant HIV-1 strains in the presence or absence of various concentrations of drugs and on day 7 of culture, the supernatant was harvested and the amounts of p24 Gag protein were determined. […] All assays were performed in duplicate or triplicate.
(§5) Numbers in parentheses represent n-fold changes in EC50s for each isolate compared to the EC50s for wild-type HIV-1NL4-3.

[7] = tested on: HIV-1396-1μM; test: microbe, parasite or virus in culture; type: cell-based, HIV-1; conditions: for EC50: Human immunodeficiency virus 1, MT4, read-out: EC50 (μM), HIV-1396-1 μM
Protocol: as §4, §5

[8] = tested on: HIV-1216-P50; test: microbe, parasite or virus in culture; type: cell-based, HIV-1
Protocol: as §4, §5

[9] = tested on: HIV-1246-1μM; test: microbe, parasite or virus in culture; type: cell-based, HIV-1; conditions: for EC50: Human immunodeficiency virus 1, MT4, read-out: EC50 (μM), HIV-1246-1 μM
Protocol: as §4, §5

[10] = tested on: HIV-1; test: antiviral assay (IC50); type: cell-based; conditions: Human immunodeficiency virus 1, Table 2; read-out: IC50
Protocol: as §2

[11] = tested on: HIV-1NL4-3; test: in vitro selection of PI-resistant HIV-1 variants in MT-4 cells; type: cell-based; conditions: HIV-1NL4-3 in MT-4 cells, increasing drug concentrations
Excerpt: The culture supernatants were harvested on day 7 and used to infect fresh MT-4 cells for the next round of culture in the presence of increasing concentrations of each drug.

[12] = tested on: multidrug-resistant clinical HIV-1 isolates (HIV-1MDR); test: microbe, parasite or virus in culture; type: cell-based; conditions: Human immunodeficiency virus 1, read-out: greatest EC50 value against the clinical isolates
Protocol: (§6) The susceptibility of HIV-1LAI and primary HIV-1 isolates to various drugs were determined as described previously (Koh et al. 2003 Antimicrob Agents Chemother 47:3123-9). Briefly, MT-2 cells (2×10^4/ml) were exposed to 100 50% tissue culture infectious doses (TCID50S) of HIV-1LAI, in the presence or absence of various concentrations of drugs in 96-well microculture plates and were incubated at 37° C. for 7 days. After 100 μl of the medium was removed from each well, 3-(4,5-dimetylthiazol-2-yl)-2,5-diphenyltetrazolium bromide (MTT) solution (10 μl, 7.5 mg/ml in phosphate-buffered saline) was added to each well in the plate, followed by incubation at 37° C. for 3 h. […] All assays were performed in duplicate or triplicate. To determine the susceptibility of primary HIV-1 isolates to drugs, phytohemagglutinin-activated peripheral blood mononuclear cells (PHA-PBMCs; 106/ml) were exposed to 50 TCID50S of each. The target cells were exposed to HIV-1104pre or drug-resistant HIV-1 in the presence or absence of various concentrations of drugs and were incubated for 7 days. Upon the conclusion of the culture, the amounts of p24 Gag protein in the supernatants were determined using a fully automated chemiluminescent enzyme immunoassay system (Lumipulse F; Fujirebio Inc., Tokyo, Japan) (Maeda et al. 2001 J Biol Chem 276:35194-200). To determine the drug susceptibility of certain laboratory HIV-1 strains, MT-4 cells were used as target cells. In brief, MT-4 cells (10^5/ml) were exposed to 100 TCID50S of drug-resistant HIV-1 strains in the presence or absence of various concentrations of drugs and on day 7 of culture, the supernatant was harvested and the amounts of p24 Gag protein were determined. […] All assays were performed in duplicate or triplicate.
These clinical strains contained 9 to 14 amino acid substitutions in the protease-encoding region, which have reportedly been associated with HIV-1 resistance to various PIs.
Amino acid substitutions identified in the protease-encoding region compared to the consensus type B sequence cited from the Los Alamos database include L63P in HIV-1ERS104pre; L10I, K14R, L33I, M36I, M46I, F53I, K55R, I62V, L63P, A71V, G73S, V82A, L90M, and I93L in HIV-1MDR/B; L10I, I15V, K20R, L24I, M36I, M46L, I54V, I62V, L63P, K70Q, V82A, and L89M in HIV-1MDR/C; L10I, V11I, T12E, I15V, L19I, R41K, M46L, L63P, A71T, V82A, and L90M in HIV-1MDR/G; L10I, K14R, R41K, M46L, I54V, L63P, A71V, V82A, L90M, I93L in HIV-1MDR/TM; L10I, K43T, M46L, I54V, L63P, A71V, V82A, L90M, and Q92K in HIV-1MDR/MM; L10I, L24I, I33F, E35D, M36I, N37S, M46L, I54V, R57K, I62V, L63P, A71V, G73S, and V82A in HIV-1MDR/JSL. HIV-1ERS104pre served as a source of wild-type HIV-1. EC50s were determined by using PHA-PBMs as target cells, and inhibition of p24 Gag protein production by each drug was used as an end point. Numbers in parentheses represent n-fold changes of EC50s for each isolate compared to EC50s for wild-type HIV-1ERS104pre.

[13] = tested on: HIV-1LPV5μM; test: microbe, parasite or virus in culture; type: cell-based; conditions: Human immunodeficiency virus 1, MT4, read-out: EC50 (μM), HIV-1LPV5 μM
Protocol: as §6, §5

[14] = tested on: HIV-1APV5μM; test: microbe, parasite or virus in culture; type: cell-based; conditions: Human immunodeficiency virus 1, MT4, read-out: EC50 (μM), HIV-1APV5 μM
Protocol: as §6, §5

[15] = tested on: HIV-2ROD; test: drug susceptibility, MT-2 cells, MTT assay, HIV-2ROD; type: cell-based; conditions: Human immunodeficiency virus 2, MT2, read-out: EC50 (μM) for HIV-2ROD
Protocol: as §1, §3

[16] = tested on: HIV-2EHO; test: drug susceptibility, MT-2 cells, MTT assay, HIV-2EHO; type: cell-based; conditions: Human immunodeficiency virus 2, MT2, read-out: EC50 (μM) for HIV-2EHO
Protocol: as §1, §3

[17] = compared to wild-type HIV-1NL4-3

In the case of `COc1ccc(S(=O)(=O)N(CC(C)C)CC(O)C(Cc2ccccc2)NC(=O)OC2COC3OCCC23)cc1` (centres unmarked) [Compound 2, TMC-126], the IC50 [1] is given as 1.2 nM.
`COc1ccc2c(c1)OCC=CCCCCN(CC(O)C(Cc1ccccc1)NC(=O)OC1COC3OCCC13)S2(=O)=O` (centres unmarked) [Compound 14d] showed an EC50 [2] of 0.017 ± 0.005 µM, a CC50 [3] of 44.9 ± 4.1 µM and a Ki [4] of less than 1 nM. The EC50 ([5]; Human immunodeficiency virus 1, MT2, read-out: EC50 (μM) for HIV-1LAI) was 0.014 ± 0.001 µM, the “Selectivity Index” value ([5]; ratio of CC50 to EC50 against HIV-1LAI) was 3,200 and the EC50 ([6]; Human immunodeficiency virus 1, MT4, read-out: EC50 (μM), HIV-1286-1 μM) was greater than 1 µM. The “n-fold change in EC50, HIV-1286-1 μM” value [6, 17] was greater than 59, the EC50 [7] was 0.52 ± 0.07 µM and the “n-fold change in EC50, HIV-1396-1 μM” value [7, 17] was “(31)”. The EC50 ([8]; Human immunodeficiency virus 1, MT4, read-out: EC50 (μM), HIV-1216-p50) was 0.24 ± 0.06 µM, the “n-fold change in EC50, HIV-1216-p50” value [8, 17] was “(14)” and the EC50 [9] was 0.37 ± 0.013 µM. For the same molecule, the “n-fold change in EC50, HIV-1246-1 μM” value [9, 17] was “(22)”, the IC50 [10] was less than 100 nM and the “passage by which HIV-1 variants replicating in the presence of 1 μM drug emerged” value [11] was 33 passages.
`CC(C)CN(C[C@@H](O)[C@H](Cc1ccccc1)NC(=O)O[C@H]1CO[C@H]2OCC[C@H]21)S(=O)(=O)c1ccc(N)cc1` [DRV, Darunavir] showed an EC50 [12] of 27 nM, an EC50 [13] of 0.025 ± 0.0066 µM and an EC50 [14] of 0.29 ± 0.0018 µM. The EC50 [15] was 0.01 ± 0.004 µM, the EC50 [7] was 0.016 ± 0.001 µM and the EC50 [9] was 0.029 ± 0.001 µM. It also gave an EC50 [16] of 0.008 ± 0.007 µM.
